Test [1] relates to C2C12 myotubes. Description: Dexamethasone-induced atrophy of differentiated C2C12 myotubes, myotube diameter (ImageJ). The conditions noted are these: for prevention of dexamethasone-induced reduction in diameter of C2C12 myotubes (in words): dexamethasone-induced atrophy. It counts as cell-based, mouse.
Experimental: C2C12 mouse myoblasts used in this experiment were obtained from the American Type Culture Collection (ATCC). The cells were cultured in Dulbecco's Modified Eagle's Medium (DMEM) containing 10% fetal bovine serum (FBS), 100 U/mL penicillin, and 100 μg/mL streptomycin under conditions of 5% CO2 at 37° C. The C2C12 cells were seeded into 12-well plates and allowed to proliferate until reaching a confluence of 85-90%.
For induction of differentiation, the culture medium was replaced with a differentiation medium composed of DMEM supplemented with 2% horse serum, 100 U/mL penicillin, and 100 μg/mL streptomycin. The medium was replaced every two days, and differentiation was carried out for a total of 6 days.
The diameter of the C2C12 myotubes was measured using the ImageJ cell processing software. For each experimental group, the diameters of 50 individual myotubes were measured to calculate the average and standard error.
In test [2] the test system is C2C12 myotubes. Kind of test: Fusion index of MHC-positive multinucleated C2C12 myotubes after dexamethasone (MHC immunofluorescence). It counts as cell-based, mouse. The protocol:
The experiment was conducted similarly to Example 3-2. However, Dichotomine B was administered at concentrations of 10 μM and 30 μM.
After completion of treatment, the culture media from each group was removed, and cells were washed twice with phosphate-buffered saline (PBS), fixed with 4% paraformaldehyde for 15 minutes, and washed three times with PBS. The cells were then permeabilized with 0.1% Triton X-100 for 10 minutes, washed twice with PBS, and blocked with 3% horse serum solution for 2 hours. Mouse anti-MHC antibody was diluted 1:100 in 3% BSA and incubated overnight at 4° C. The cells were washed three times with 0.1% PBST. Goat anti-mouse IgG-FITC secondary antibody (Thermo Fisher Scientific) was diluted 1:500 in 3% BSA and reacted for 1 hour at 37° C., followed by three washes with 0.1% PBST. Next, cells were stained with 1 μg/mL Hoechst 33342 solution for 10 minutes at room temperature. Cell imaging was performed using the JuLi™ system. MHC immunofluorescence was visualized in green, and cell nuclei stained with Hoechst 33342 were visualized in blue.
From the results of Section 7-3, randomly selected multinucleated myotubes were analyzed to calculate the fusion index. The number of multinucleated myotubes (i.e., myotubes containing multiple nuclei) was counted and normalized to the total number of cells. The relative number of MHC-positive multinucleated myotubes was determined for each treatment group (see Table 4 and FIG. 13).

Test [3] relates to C57BL/6 male mice. Kind of test: Muscle tissue weights (TA, EDL, GA, SOL) of mice after 48-hour fasting. It counts as in vivo. The conditions noted are these: 10 mg/kg. Here is the method: (§1) C57BL/6 male mice (6 weeks old) were obtained from Koatech (Pyeongtaek, Gyeonggi-do, Korea) and acclimated for one week in the Hanyang University ERICA Laboratory Animal Center (Animal Facility Registration No. 445) before use in the experiments. The lighting cycle was set to 12 hours (07:00 to 19:00), and food and water were provided ad libitum. All animal experiments were conducted in compliance with the guidelines and regulations of the Institutional Animal Care and Use Committee (IACUC) of Hanyang University.
(§2) After acquisition of the experimental animals and a 7-day acclimation period, the experiment was conducted.
(§3) Body weight was measured three times in total. For the fasting group, each animal was housed individually during the fasting period. The test sample was administered twice: once at the start of the fasting period, and again 24 hours later. Experimental results are presented as means±standard deviation (SD). Statistical significance among groups was analyzed using ANOVA t-tests via the StatView program.
To evaluate muscle loss, the weights of dissected muscle tissues-including the tibialis anterior (TA), extensor digitorum longus (EDL), gastrocnemius (GA), and soleus (SOL)-were measured post-mortem and summarized in Table 9.

Test [4] concerns C57BL/6 male mice. Kind of test: Grip strength of mice after 48-hour fasting (grip strength meter). It counts as in vivo. The conditions noted are these: fed mice, 10 mg/kg. The protocol: as §1, §2, §3
After the completion of the fasting period, grip strength was measured using a grip strength meter.

Test [5] concerns C2C12 myotubes. Description: In vitro starvation model (serum-free/low-glucose medium), C2C12 myotube diameter and MHC-stained area. It counts as cell-based, mouse. Here is the method: (§4) Culturing differentiated C2C12 myotubes in serum-free/low-glucose medium inhibits muscle protein synthesis and induces muscle atrophy through increased protein degradation. In this example, C2C12 myotubes differentiated as in Section 8-1 were cultured in serum-free/low-glucose medium to induce atrophy, and the cells were then treated with Dichotomine B under the following specific experimental conditions: • 1. Control group: Differentiated C2C12 myotubes were maintained in normal differentiation medium for 48 hours. • 2. Negative control group: Differentiated C2C12 myotubes were cultured in serum-free/low-glucose medium for 48 hours. • 3 Dichotomine B treatment groups: In the same condition as the negative control group, Dichotomine B was additionally administered at concentrations of 1 μM or 10 μM for 48 hours.
This procedure was conducted in the same manner as described in Section 7-3.
The diameter and staining area of the myotubes were measured as described in Example 3-3. The mean and standard errors were calculated, and the results were organized into Table 6. Each experiment was performed in triplicate.

Test [6] concerns MHC, Atrogin-1 and MuRF-1 in C2C12 myotubes. Kind of test: Western blotting of dexamethasone-treated C2C12 myotubes. It counts as cell-based, mouse. The conditions noted are these: dexamethasone model, western blot. The protocol: C2C12 cells were seeded in a 6-well plate at a density of 1×10^5 cells per well. After differentiation was complete, each group was treated with dexamethasone and the test sample according to the respective experimental condition.
Cells were lysed using a lysis buffer containing LIPA buffer, protease inhibitors, and phosphatase inhibitors. A volume of 200 μL of the prepared lysis buffer was added per well, and the cells were collected using a cell scraper. The lysates were centrifuged at 13,000 rpm for 20 minutes, and the supernatants were collected. Protein concentrations were measured using the BCA protein assay method. Equal amounts of protein were separated using 8% SDS-PAGE.
The separated proteins were transferred to a nitrocellulose membrane, followed by blocking with 3% BSA buffer. The membranes were incubated with various primary antibodies (e.g., MHC, FoxO3a, MuRF1, GAPDH), followed by sequential washing, incubation with secondary antibodies, and further washing steps.
Protein expression was detected using enhanced chemiluminescence (ECL), and images were acquired using the ChemiDoc imaging system. Quantification of each protein expression level was performed using ImageJ software.
Background: A western blot detects proteins with antibodies after separation by electrophoresis.

The test system of test [7] is MHC, FOXO3a, Atrogin-1 and MuRF-1 in C2C12 myotubes. Description: Western blotting in the C2C12 starvation model. It counts as cell-based, mouse. The following applies: western blot. Here is the method:
as §4
Western blotting was performed in the same manner as described in Example 7-5 to assess the expression levels of related proteins.

Test [8] is described as follows: Body weight of mice with 48-hour fasting. It counts as in vivo, C57BL/6 male mice. The following applies: 10 mg/kg; for Body weight (g), End of Sample Administration: administered twice. Here is the method:
as §1, §2
Solid feed for laboratory animals (Woojung Bio, Hwaseong, Gyeonggi-do, Korea) was provided, and all treatments were administered during a fixed time window (10:00 AM to 12:00 PM).
as §3
In the non-fasting group, body weight changes were within the normal range. However, in the fasting group (F group), a statistically significant reduction in body weight was observed after 48 hours of fasting (see Table 7).

Setting [9] is: Dex 10 μM + compound 30 μM, 24 hours.
The mark [10] stands for this setting: starvation (serum free/low glucose medium) 48 hours + compound 1 μM.
The mark [11] stands for this setting: starvation (serum free/low glucose medium) 48 hours + compound 10 μM.
Where [12] appears, read: fed mice (Feed + Dichotomine B).

The text below walks through data of patent US20260158094A1, “COMPOSITION FOR PREVENTING, IMPROVING OR TREATING SKELETAL MUSCLE ATROPHY OR SARCOPENIA COMPRISING EXTRACT OR ISOLATED COMPOUND FROM STELLARIA DICHOTOMA AS ACTIVE INGREDIENT” (INDUSTRY-UNIVERSITY COOPERATION FOUNDATION HANYANG …, priority 2023, published 2026).

Where “and” joins values, the source holds several entries; their conditions need not be identical. Equal values may be shown once. Marks after values point to notes of the source that are not given here.

Consider `C[C@@H]1C[C@H]2[C@@H]3CCC4=CC(=O)C=C[C@]4(C)[C@@]3(F)[C@@H](O)C[C@]2(C)[C@@]1(O)C(=O)CO` [Dex, Dexamethasone, reference compound], for which the “C2C12 myotube diameter (% of control)” value with C2C12 myotubes [1] (dexamethasone 10 μM alone, 24 hours (negative control group)) is given as 79.9^a % of control. In the test on C2C12 myotubes [1] (dexamethasone 10 μM vs differentiation medium alone), the “decrease of C2C12 myotube diameter compared to the control group” value came to 21.1%. Further, the “fusion index of MHC-positive multinucleated C2C12 myotubes (% of control)” value in the test with C2C12 myotubes [2] (Dex 10 μM alone) is recorded as 80.0^a % of control.
`O=C(O)c1cc2c([nH]c3ccccc32)c([C@@H](O)CO)n1` [Dichotomine B]: the “Extensor Digitorum Longus (EDL) weight” value in the test on C57BL/6 male mice [3] (fed mice) amounted to 0.012 ± 0.002 g; with C57BL/6 male mice [3] (starved mice, 48-hour fasting) it was 0.014 ± 0.004 g. Besides, the “Gastrocnemius (GA) weight” value amounted to 0.169 ± 0.014 g in the test with C57BL/6 male mice [3] (fed mice) and 0.165 ± 0015 g with C57BL/6 male mice [3] (starved mice, 48-hour fasting). Further, the “Soleus (SOL) weight” value in the test with C57BL/6 male mice [3] (fed mice) was found to be 0.010 ± 0.001 g. Also, the “Tibialis Anterior (TA) weight” value in the test with C57BL/6 male mice [3] (fed mice) is reported as 0.058 ± 0.006 g. For the same compound, in the test with C57BL/6 male mice [4], the Grip Strength (gf) came out at 190 ± 11.7 gf. Moreover, the “C2C12 myotube diameter (% of control)” value is 97.9^b % of control with C2C12 myotubes [1] (Dex 10 μM + compound 10 μM, 24 hours); 98.2^b % of control and 100.6^b % of control with C2C12 myotubes [1] (setting [9]); 98.6 + 9.3^b % of control in the test on C2C12 myotubes [5] (setting [10]); 100.4 ± 10.8^b % of control in the test on C2C12 myotubes [5] (setting [11]). For the same compound, the “prevention of dexamethasone-induced reduction in diameter of C2C12 myotubes (in words)” value in the test with C2C12 myotubes [1] is “effectively prevented”. Besides, the “MHC positive area (% of control)” value in the test on C2C12 myotubes [5] (setting [10]) is on record as 93.6 + 7.8^b % of control; in the test on C2C12 myotubes [5] (setting [11]), 97.1 ± 8.4^b % of control. For the same compound, the MHC expression result in test [6] is “increased in a concentration-dependent manner”. Besides, the “expression of Atrogin-1 and MuRF-1” value in test [6] was “reduced”. Further, the “fusion index of MHC-positive multinucleated C2C12 myotubes (% of control)” value with C2C12 myotubes [2] (Dex 10 μM + compound 10 μM) is listed as 90.3^b % of control; in the test with C2C12 myotubes [2] (Dex 10 μM + compound 30 μM) it was 92.3^b % of control. Moreover, the “fusion index of multinucleated C2C12 myotubes (in words)” value with C2C12 myotubes [2] (dexamethasone model) is “significantly improved the fusion index”. Besides, the “effect on starvation-induced changes of MHC, FOXO3a, Atrogin-1 and MuRF-1 expression” value in test [7] is “effectively reversed these effects”. Also, the “Body weight (g), Start of Sample Administration” value in test [8] (setting [12]) is given as 21.080 ± 0.370 g; in test [8] (starved mice (Starvation + Dichotomine B)), 22.214 ± 0.701 g. Moreover, the “Body weight (g), End of Sample Administration” value worked out at 21.400 ± 0.339 g in test [8] (setting [12]) and 17.743 ± 0.885 g in test [8] (starved mice, 48-hour fasting). Moreover, the “effect on body weight (in words)” value in test [8] (mice, 48-hour fasting) is reported as “no significant effect on body weight”.
With `C[C@H](O)c1nc(C(=O)O)cc2c1[nH]c1ccccc12` [Dichotominee A, Dichotomine A], in the test with C2C12 myotubes [1] (setting [9]), the “C2C12 myotube diameter (% of control)” value was 87.9 % of control.
In the case of `O=c1cc(-c2ccc(O)cc2)oc2c([C@@H]3O[C@H](CO)[C@@H](O)[C@H](O)[C@H]3O)c(O)c([C@@H]3OC[C@H](O)[C@H](O)[C@H]3O)c(O)c12` [Isoshaftoside], in the test with C2C12 myotubes [1] (setting [9]), the “C2C12 myotube diameter (% of control)” value is reported as 95.7^c % of control. Moreover, in the test on C2C12 myotubes [1], the “prevention of dexamethasone-induced reduction in diameter of C2C12 myotubes (in words)” value is “effectively prevented”.
For Glucodichotomine B, in that order: 102.0^b % of control and “effectively prevented”.
With Shaftoside, the “C2C12 myotube diameter (% of control)” value in the test with C2C12 myotubes [1] (setting [9]) is 92.7^c % of control. Further, the “prevention of dexamethasone-induced reduction in diameter of C2C12 myotubes (in words)” value with C2C12 myotubes [1] is reported as “effectively prevented”.
